Laboratory results reported in publication PMC7369637, “Inhibition of Resistance-Refractory P. falciparum Kinase PKG Delivers Prophylactic, Blood Stage, and Transmission-Blocking Antiplasmodial Activity” (Cell Chemical Biology, 2020).

System: metabolite levels in Pf trophozoites and schizonts
Assay: Metabolomics (UHPLC-MS) of treated trophozoites and schizonts
Format: cell-based, Plasmodium falciparum
Conditions: schizonts
Method: Metabolomics experiments were performed as described elsewhere ([Murithi et al., 2019]). […] Following several washes, metabolites were extracted by 90% methanol containing 0.5 μM ^13C^15N-labelled aspartate as an internal standard. Nitrogen-dried samples were stored at -80°C. Samples were resuspended in high-performance liquid chromatography (HPLC) grade water that contained 1 μM chlorpropamide as an internal standard. They were then analyzed by ultra-high-performance liquid chromatography mass spectrometry UHPLC-MS ([Allman et al., 2016]). Data analysis was performed using the el-MAVEN software and the Metaboanalyst package in R Studio ([Murithi et al., 2019]).

Question: `O=C1C(O)=C([C@H]2CC[C@H](c3ccc(Cl)cc3)CC2)C(=O)c2ccccc21` [ATQ, Atovaquone] was tested. Which “Log2 fold change in 2-Hydroxy-2-methylbutanedioic acid level” value did it give?
Answer: -0.013

Question: What about the “Log2 fold change in 2_3-Diphosphoglyceric acid level” value of the same compound?
Answer: -0.049

Question: And the “Log2 fold change in 3-phosphoglycerate level” value?
Answer: -0.461

Question: What about the “Log2 fold change in 4-aminobutyrate level” value of the same compound?
Answer: 0.163

Question: What about the “Log2 fold change in 4-phosphopantothenate level” value of the same compound?
Answer: -0.471

Question: And the “Log2 fold change in 6-phospho-D-gluconate level” value?
Answer: -0.038

Question: And the “Log2 fold change in ADP-D-glucose level” value?
Answer: 0.078

Question: And the “Log2 fold change in CDP level” value?
Answer: -0.939

Question: And the “Log2 fold change in CMP level” value?
Answer: -0.776

Question: And the “Log2 fold change in D-glucosamine-1/6-phosphate level” value?
Answer: -0.254

Question: And the “Log2 fold change in D-sedoheptulose-1/7-phosphate level” value?
Answer: -0.253

Question: What about the “Log2 fold change in DL-Pipecolic Acid level” value of the same compound?
Answer: 0.155

Question: What about the “Log2 fold change in DLH level” value of the same compound?
Answer: 0.054

Question: What about the “Log2 fold change in DLS level” value of the same compound?
Answer: 0.295

Question: And the “Log2 fold change in FAD level” value?
Answer: 0.00635

Question: And the “Log2 fold change in FMN level” value?
Answer: -0.114

Question: And the “Log2 fold change in GDP level” value?
Answer: -0.131

Question: What about the “Log2 fold change in GMP level” value of the same compound?
Answer: 0.068

Question: What about the “Log2 fold change in HVDD level” value of the same compound?
Answer: 0.015

Question: And the “Log2 fold change in Hexose level” value?
Answer: 0.028

Question: What about the “Log2 fold change in IMP level” value of the same compound?
Answer: 0.230

Question: And the “Log2 fold change in N-Acetyl-L-alanine level” value?
Answer: -0.209

Question: What about the “Log2 fold change in N-acetyl-L-ornithine level” value of the same compound?
Answer: 0.067

Question: And the “Log2 fold change in N-acetyl-glutamate level” value?
Answer: 0.069

Question: And the “Log2 fold change in N-acetyl-glutamine level” value?
Answer: -0.075

Question: What about the “Log2 fold change in N-carbamoyl-L-aspartate level” value of the same compound?
Answer: 2.103

Question: What about the “Log2 fold change in NAD+ level” value of the same compound?
Answer: -0.089

Question: And the “Log2 fold change in NADP+ level” value?
Answer: -0.036

Question: What about the “Log2 fold change in NADPH level” value of the same compound?
Answer: 0.265

Question: And the “Log2 fold change in Octulose 8/1P level” value?
Answer: -0.088

Question: And the “Log2 fold change in Octulose Bisphosphate level” value?
Answer: -0.059

Question: And the “Log2 fold change in PD level” value?
Answer: 0.272

Question: And the “Log2 fold change in PE level” value?
Answer: 0.257

Question: What about the “Log2 fold change in PEE level” value of the same compound?
Answer: 0.222

Question: And the “Log2 fold change in PEEK level” value?
Answer: 0.220

Question: What about the “Log2 fold change in PVNF level” value of the same compound?
Answer: -0.058

Question: And the “Log2 fold change in Pyroglutamic acid level” value?
Answer: -0.420

Question: What about the “Log2 fold change in Ribose-5-phosphate level” value of the same compound?
Answer: -0.347

Question: And the “Log2 fold change in S-adenosyl-L-homocysteine level” value?
Answer: -0.090

Question: And the “Log2 fold change in Sedoheptulose bisphosphate level” value?
Answer: -0.159

Question: And the “Log2 fold change in UDP level” value?
Answer: -1.390

Question: What about the “Log2 fold change in UDP-D-glucose level” value of the same compound?
Answer: -0.006

Question: What about the “Log2 fold change in UDP-D-glucuronate level” value of the same compound?
Answer: -0.062

Question: And the “Log2 fold change in UDP-N-acetyl-glucosamine level” value?
Answer: -0.391

Question: What about the “Log2 fold change in UMP level” value of the same compound?
Answer: -1.267

Question: What about the “Log2 fold change in a-ketoglutarate level” value of the same compound?
Answer: -0.084

Question: And the “Log2 fold change in acetyl-CoA level” value?
Answer: -0.850

Question: And the “Log2 fold change in acetyl-aspartate level” value?
Answer: -0.355

Question: And the “Log2 fold change in alanine/sarcosine level” value?
Answer: -0.266

Question: What about the “Log2 fold change in arginine level” value of the same compound?
Answer: -0.203

Question: What about the “Log2 fold change in asparagine level” value of the same compound?
Answer: -0.008

Question: And the “Log2 fold change in aspartate level” value?
Answer: -0.839

Question: What about the “Log2 fold change in coenzyme A level” value of the same compound?
Answer: -0.075

Question: What about the “Log2 fold change in cyclic-AMP level” value of the same compound?
Answer: -0.213

Question: What about the “Log2 fold change in cytidine level” value of the same compound?
Answer: -0.213

Question: What about the “Log2 fold change in dCDP level” value of the same compound?
Answer: -0.147

Question: And the “Log2 fold change in dCMP level” value?
Answer: -0.462

Question: What about the “Log2 fold change in dCTP level” value of the same compound?
Answer: -0.058

Question: What about the “Log2 fold change in dGDP/ADP level” value of the same compound?
Answer: -0.147

Question: What about the “Log2 fold change in dGMP/AMP level” value of the same compound?
Answer: -0.148

Question: What about the “Log2 fold change in dTDP level” value of the same compound?
Answer: -1.164

Question: And the “Log2 fold change in dTMP level” value?
Answer: -1.035

Question: What about the “Log2 fold change in dTTP level” value of the same compound?
Answer: -0.979

Question: And the “Log2 fold change in dihydroorotate level” value?
Answer: 3.181

Question: What about the “Log2 fold change in folate level” value of the same compound?
Answer: -0.209

Question: And the “Log2 fold change in fructose-1-6-bisphosphate level” value?
Answer: -0.277

Question: And the “Log2 fold change in fructose-6-phosphate level” value?
Answer: -0.212

Question: What about the “Log2 fold change in fumarate level” value of the same compound?
Answer: -0.532

Question: And the “Log2 fold change in glutamate level” value?
Answer: 0.117

Question: And the “Log2 fold change in glutamine level” value?
Answer: -0.138

Question: What about the “Log2 fold change in glutathione disulfide level” value of the same compound?
Answer: -0.224

Question: And the “Log2 fold change in glutathione level” value?
Answer: -0.005

Question: What about the “Log2 fold change in guanosine level” value of the same compound?
Answer: 0.426

Question: And the “Log2 fold change in histidine level” value?
Answer: -0.171

Question: What about the “Log2 fold change in hydroxyproline/Aminolevulinate level” value of the same compound?
Answer: -0.254

Question: And the “Log2 fold change in hypoxanthine level” value?
Answer: -0.139

Question: And the “Log2 fold change in inosine level” value?
Answer: -0.136

Question: And the “Log2 fold change in isoleucine level” value?
Answer: -0.252

Question: And the “Log2 fold change in lysine level” value?
Answer: 0.587

Question: What about the “Log2 fold change in malate level” value of the same compound?
Answer: -0.393

Question: What about the “Log2 fold change in maleic acid level” value of the same compound?
Answer: -0.266

Question: And the “Log2 fold change in methionine level” value?
Answer: -0.241

Question: What about the “Log2 fold change in nicotinate level” value of the same compound?
Answer: -0.183

Question: What about the “Log2 fold change in orotate level” value of the same compound?
Answer: -1.303

Question: What about the “Log2 fold change in pantothenate level” value of the same compound?
Answer: -0.167

Question: What about the “Log2 fold change in phenylalanine level” value of the same compound?
Answer: -0.316

Question: And the “Log2 fold change in phosphoenolpyruvate level” value?
Answer: -0.095

Question: And the “Log2 fold change in proline level” value?
Answer: -0.320

Question: And the “Log2 fold change in pyruvate level” value?
Answer: -1.011

Question: What about the “Log2 fold change in ribose level” value of the same compound?
Answer: -0.223

Question: And the “Log2 fold change in ribose-phosphate level” value?
Answer: -0.313

Question: And the “Log2 fold change in ribulose-5-phosphate level” value?
Answer: -0.261

Question: And the “Log2 fold change in serine level” value?
Answer: 0.028

Question: What about the “Log2 fold change in sn-glycerol-3-phosphate level” value of the same compound?
Answer: -0.021

Question: And the “Log2 fold change in succinate/Methylmalonic acid level” value?
Answer: -0.382

Question: And the “Log2 fold change in thiamine level” value?
Answer: -0.051

Question: What about the “Log2 fold change in threonine/homoserine level” value of the same compound?
Answer: -0.072

Question: What about the “Log2 fold change in tryptophan level” value of the same compound?
Answer: -0.203

Question: What about the “Log2 fold change in tyrosine level” value of the same compound?
Answer: -0.165

Question: And the “Log2 fold change in xanthosine level” value?
Answer: -0.209

Question: And the “Log2 fold change in xanthosine-5-phosphate level” value?
Answer: -0.537
